Measured values: PMC11397727, “Fast Screening of Tyrosinase Inhibitors in Coreopsis tinctoria Nutt. by Ligand Fishing Based on Paper-Immobilized Tyrosinase” (Molecules, 2024)

Molecular target: T1, Mushroom Tyrosinase (TYR) (Agaricus bisporus, UniProt C7FF04)
T1 construct: gene PPO3
Assay: colorimetric L-Dopa oxidation assay, single-concentration inhibition at […]; also retrieved by ligand fishing on paper-immobilized tyrosinase
Assay type: biochemical

T1 sequence (C7FF04 2-392): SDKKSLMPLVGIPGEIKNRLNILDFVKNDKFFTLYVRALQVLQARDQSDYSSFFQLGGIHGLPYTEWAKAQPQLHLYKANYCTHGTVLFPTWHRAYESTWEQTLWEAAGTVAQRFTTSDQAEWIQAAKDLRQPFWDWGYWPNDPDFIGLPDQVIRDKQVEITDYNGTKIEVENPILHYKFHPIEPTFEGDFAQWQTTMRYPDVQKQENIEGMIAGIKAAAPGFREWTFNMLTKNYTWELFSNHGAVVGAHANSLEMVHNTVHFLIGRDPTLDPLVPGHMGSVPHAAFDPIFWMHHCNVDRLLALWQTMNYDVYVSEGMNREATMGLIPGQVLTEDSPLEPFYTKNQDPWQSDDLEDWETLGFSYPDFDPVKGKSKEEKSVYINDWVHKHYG

**Q.** How did the inhibition at 25 µM turn out when O=C(/C=C/c1ccc(O)c(O)c1)c1ccc(O[C@@H]2O[C@H](CO)[C@@H](O)[C@H](O)[C@H]2O)c(O)c1O [compound 2, marein] was run?
**A.** 29.4%
